In patent US10413557B2, “Prodrugs of 17.BETA.-HSD1-inhibitors” (FORENDO PHARMA LTD, priority 2014, dated 2019):
Converted amounts (≈) assume the structure as drawn.

How the values were obtained:
Aqueous solubility test = format: physicochemical; details: for solubility: buffer solution, aqueous buffer, thermodynamic from solid, rt, buffer pH 7.4, stirred 48 hours or less, HPLC
Protocol: The pH of the mixtures was held constant during the study. Excess amounts or a known amount of each component are added to 1 or 0.5 ml of buffer solution and the mixtures were stirred at rt for 48 hours or less, filtered (0.45 μm Millipore) and analyzed by HPLC.

[1] = Determination of bioavailability: oral pharmacokinetics in Cynomolgus monkeys; format: in vivo; details: dose corresponding to 10 mg/kg of parent drug, 0.5% Carboxymethyl cellulose in water
Protocol: This study was performed in order to determine bioavailability of the present compounds in vivo. All animal experiments are performed in accordance with standards of ethical conduct and appropriate institutional animal care and use policies.
The pharmacokinetic studies of the compounds of the invention were assessed in Cynomolgus monkeys. The study compounds were administrated orally at a dose level corresponding to 10 mg/kg of parent drug. The common aqueous formulation, 0.5% Carboxymethyl cellulose in water, was used as a vehicle. The blood samples were obtained by direct venipuncture at pre-dose, and ten sequential time points after oral administration.
The quantitative bioanalysis of plasma samples were performed in accordance with the guidance Bioanalytical Method Validation (FDA, 2001) and the Guideline on Bioanalytical Method Validation (European Medicines Agency, 2011). Analytical method was optimized for suitable chromatographic (peak shape, retention) and mass spectrometric (ionization efficiency) properties.
A non-compartmental pharmacokinetic analysis was carried out with individual plasma concentration-time curves using WinNonlin® Professional Version 6.3 (Pharsight Corporation): […]
The area under the concentration-time curve from 0 to the last measurable concentration (AUCt) was calculated using the linear-log trapezoidal rule.

[2] = target: T1, recombinant human 17β-HSD1 (Homo sapiens, UniProt P14061); assay: Inhibition of recombinant human 17β-HSD1 (conversion of 3H-estrone to estradiol, HPLC); format: biochemical; details: inhibitor 1 μM; 30 nM estrone, 1 mM NADPH, 30 min RT; read-out: 17β-HDS1 Inhibition % at 1 μM
T1 construct: made in house; host or cells: Sd9 (Sf9) insect cells, baculovirus (Bac to Bac Expression System)
T1 sequence (P14061 1-328): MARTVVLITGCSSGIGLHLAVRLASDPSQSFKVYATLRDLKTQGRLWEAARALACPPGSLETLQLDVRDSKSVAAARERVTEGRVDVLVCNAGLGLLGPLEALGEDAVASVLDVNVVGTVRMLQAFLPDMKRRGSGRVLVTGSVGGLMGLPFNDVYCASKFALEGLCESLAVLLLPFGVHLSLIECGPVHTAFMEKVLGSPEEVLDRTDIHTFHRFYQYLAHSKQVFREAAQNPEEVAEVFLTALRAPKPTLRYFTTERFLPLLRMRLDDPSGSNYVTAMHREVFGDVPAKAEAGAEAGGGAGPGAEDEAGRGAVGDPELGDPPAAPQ
Protocol: 17β-HSD1 production and isolation: Recombinant baculovirus was generated by the “Bac to Bac Expression System” (Invitrogen). Recombinant bacmid was transfected to Sd9 insect cells using “Cellfectin Reagent” (Invitrogen). 60 h later cells were harvested; the microsomal fraction was isolated as described by Puranen, T. J., Poutanen, M. H., Peltoketo, H. E., Vihko, P. T. and Vihko, R. K. (1994) Site-directed mutagenesis of the putative active site of human 17 β-hydroxysteroid dehydrogenase type 1. Biochem. J. 304: 289-293. Aliquots were stored frozen until determination of enzymatic activity.
Assay—Inhibition of recombinant human 17β-HSD1: Protein homogenate (0.1 μg/ml) was incubated in 20 mM KH2PO4 pH 7.4 with 30 nM estrone (including 800 000 cpm/ml of ^3H-estrone) and 1 mM NADPH for 30 min at RT, in the presence of the potential inhibitor at concentrations 1 μM or 0.1 μM. Inhibitor stock solutions were prepared in DMSO. Final concentration of DMSO was adjusted to 1% in all samples. The enzyme reaction was stopped by addition of 10% trichloroacetic acid (final concentration). Samples were centrifuged in a microtiter plate at 4000 rpm for 10 min. Supernatants were applied to reverse phase HPLC on a Waters Symmetry C18 column, equipped with a Waters Sentry Guard column. Isocratic HPLC runs were performed at RT at a flow rate of 1 ml/min in acetonitrile:water 48:52 as running solvent. Radioactivity was monitored in the eluate by a Packard Flow Scintillation Analyzer. Total radioactivity for estrone and estradiol were determined in each sample and percent conversion of estrone to estradiol was calculated according to the following formula:
(§1) Percent inhibition was calculated flowingly: % inhibition=100−% conversion

[3] = target: T2, recombinant human 17β-HSD2 (Homo sapiens, UniProt P37059); assay: Inhibition of recombinant human 17β-HSD2 (conversion of 3H-estradiol to estrone, HPLC); format: biochemical; details: inhibitor 1 μM; 50 nM estradiol, 1 mM NADH, 30 min RT
T2 construct: made in house; host or cells: Sd9 (Sf9) insect cells, baculovirus (Bac to Bac Expression System)
T2 sequence (P37059 1-387): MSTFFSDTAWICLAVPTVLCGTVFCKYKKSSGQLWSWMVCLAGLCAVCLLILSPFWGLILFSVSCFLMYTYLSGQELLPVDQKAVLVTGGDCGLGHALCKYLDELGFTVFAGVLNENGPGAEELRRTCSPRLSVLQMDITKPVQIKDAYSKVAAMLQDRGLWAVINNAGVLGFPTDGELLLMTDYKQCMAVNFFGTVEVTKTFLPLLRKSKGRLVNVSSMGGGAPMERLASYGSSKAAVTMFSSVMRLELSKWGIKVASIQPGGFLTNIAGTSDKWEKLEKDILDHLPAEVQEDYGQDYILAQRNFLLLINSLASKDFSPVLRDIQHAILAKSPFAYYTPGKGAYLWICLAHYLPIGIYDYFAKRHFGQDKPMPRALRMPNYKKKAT
Protocol: 17β-HSD2 production and isolation: Similarly to 17β-HSD1 the Recombinant baculovirus was generated by the “Bac to Bac Expression System” (Invitrogen). Recombinant bacmid was transfected to Sd9 insect cells using “Cellfectin Reagent” (Invitrogen). 60 h later cells were harvested and supernatant were fractionated by the following protocol: • cells were dissolved into 40 ml of A-buffer (40 mM TRIS, pH8.0, 20% glycerol, 20 μM NAD, 0.4 mM PMSF, 150 mM NaCl, 0.5% dodecyl-β-maltoside+protease inhibitor cocktail) • cells were sonicated • lysate was incubated on ice for 15 min • lysate was centrifuged 5000 rpm 15 min, +4° C. • centrifugation of the supernatant 180 000 g 30 min, +4° C. • pellet was dissolved into 8 ml of A-buffer • not resuspended material was removed by centrifugation 5000 rpm 15 min, +4° C. • the clear supernatant was divided into 100 μl aliquots and were stored frozen until determination of enzymatic activity.
The amount of 17β-HSD2 was analysed by immunoblotting and total protein concentration of each extract batch was determined.
Assay—Inhibition of recombinant human 17β-HSD2: Protein homogenate (4 μg/ml) was incubated in 20 mM KH2PO4 pH 8.5 with 50 nM estradiol (including 800 000 cpm/ml of ^3H-estradiol) and 1 mM […] for 30 min at RT, in the presence of the potential inhibitor at concentrations 1 μM or 0.1 μM. Inhibitor stock solutions were prepared in DMSO. Final concentration of DMSO was adjusted to 1% in all samples. The enzyme reaction was stopped by addition of 10% trichloroacetic acid (final concentration). Samples were centrifuged in a microtiter plate at 4000 rpm for 10 min. Supernatants were applied to reverse phase HPLC on a Waters Symmetry C18 column, equipped with a Waters Sentry Guard column. Isocratic HPLC runs were performed at RT at a flow rate ofl ml/min in acetonitrile:water 48:52 as running solvent. Radioactivity was monitored in the eluate by a Packard Flow Scintillation Analyzer. Total radioactivity for estrone and estradiol were determined in each sample and percent conversion of estradiol to estrone was calculated according to the following formula:
as §1

[4] = Metabolic stability assay; format: in vitro ADME; details: human liver homogenate or microsomes
Protocol: The in vitro metabolic stability of the parent compounds was determined for exemplified compounds using human liver microsome and homogenate incubations. The incubation time points used with or without appropriate cofactors were 0 min and 60 min. Samples were collected at both time points and substrates were detected using LC/PDA/TOF-MS. In vitro metabolic stability (% remaining after 60 min in human liver homogenate or microsomes) of the compounds were calculated and the results are summarized in Table 4.

CO/N=C1\C[C@@H](CCC(=O)Nc2ncc(C)s2)C2C3CCc4cc(OC(=O)CN)ccc4C3CC[C@]12C (stereo partly drawn) [Compound 3, Aminoacetic acid (13S,15R)-13-methyl-17[(E)-methoxyimino]-15-[2-(5-methyl-thiazol-2-ylcarbamoyl)-ethyl]-7,8,9,11,12,13,14,15,16,17-decahydro-6H-cyclopenta[a]phenanthren-3-yl ester]
solubility (Aqueous solubility test): 2.37 µg/mL (≈ 4.52 µM)
aqueous solubility, in words (Aqueous solubility test; comment on Table 5, compared with parent VIV-1): improved aqueous solubility

Phosphoric acid mono-{(13S,15R)-17-[(E)-methoxyimino]-13-methyl-15-[2-(5-methylthiazol-2-ylcarbamoyl)ethyl-7,8,9,11,12,13,14,15,16,17-decahydro-6H-cyclopenta[a]phenanthren-3-yl} ester disodium salt [Compound 1a]
Cmax [1]: 286 ng/mL
AUCt ([1]; 0 to last measurable concentration): 3170 ng·h/mL

CO/N=C1\C[C@@H](CCC(=O)Nc2ncc(C)s2)C2C3CCc4cc(O)ccc4C3CC[C@]12C (stereo partly drawn) [VIV-1, 3-{(13S,15R)-3-Hydroxy-17-[(E)-methoxyimino]-13-methyl-7,8,9,11,12,13,14,15,16,17-decahydro-6H-cyclopenta[a]phenanthren-15-yl}-N-(5-methylthiazol-2-yl)propanamide]
inhibition at 1 µM [2]: 95%
inhibition at 1 µM [3]: 4%
In vitro metabolic stability, % remaining after 60 min [4]: 73%
solubility (Aqueous solubility test): < 0.52 µg/mL
